Like-named read-outs stand apart in the source and are kept apart here.
Assays:
[1] = system: OCI-LY10 cells; test: In vitro combination studies in OCI-LY10 (Chou-Talalay); format: cell-based, human
Experimental: The ABC-DLBCL cell line OCI-LY10 was MV4-11 cells were maintained in IMDM (Invitrogen, supplemented with 20% heat inactivated fetal bovine serum (Life Technologies, Grand Island, N.Y) plus+BME. Cultures were maintained in a humidified atmosphere including 5% CO2. Studies were performed using OCI-LY10 cells in vitro to evaluate the anti-proliferative effect of a combination of two agents together on cell growth. The cell counts were measured by ATP quantitation using the Promega Cell Titer Glo kit and luminescence values corresponded to the amount of ATP in a given well. Compounds evaluated for synergy were tested in a range which was bracketed around the IC50's. The compounds were plated to a 384 well plate in a matrix format which includes increasing concentrations of each drug in the combination in a constant ratio, in addition to the effect of each compound alone in the study. […] DMSO concentration was less than 0.2% v/v.
The drug combination analysis was performed utilizing the Chou-Talalay method [Chou TC Pharmacological Reviews 2006]. Maximum and minimum inhibition (DMSO alone) controls were used in each plate to calculate fraction affected (Fa) of a test well. […] Synergy was determined using the software package Calcusyn by Biosoft. Graphs representing values of combination index (CI) versus Fractional effect (Fa) known as Fa-CI plots were generated and synergy was evaluated.

[2] = molecular target: IRAK4 (Mus musculus (Mouse), UniProt Q8R4K2); test: In vivo IRAK4 degradation in BALB/c mouse spleen (air pouch study); details: three PO doses; FIG. 8
Experimental: Dosing of Degrader: Mice were dosed orally at 10 mL/kg with suspensions above, giving 10 mg/kg, 30 mg/kg and 100 mg/kg final dose levels, three times at 8-hour intervals.
Termination, Cell Collection and Data: Four hours after MSU/saline injection, the mice were anesthetized and humanely exsanguinated. The spleens were removed, halved, flash frozen in labeled Eppendorf tubes in liquid nitrogen, and stored at −80° C. for determination of IRAK4 using targeted MS/MS with labeled peptide internal standard. Immediately after the bleed, 3 ml 10 U/mL heparinized saline was injected into the air pouch. The air pouch was gently massaged, the contents immediately removed, and the exudate volume recorded. After allowing the MSU crystals to settle out for fifteen minutes in an ice bath, an aliquot of the exudate was transferred to labeled Eppendorf tubes for differential white blood cell counts, including neutrophils.

[3] = system: BALB/c mice; test: MSU crystal-induced inflammatory cell infiltration into six-day air pouch (gout model); format: in vivo, mouse; details: orally dosed; FIG. 15
Experimental: Animals: BALB/c mice, male, 5-6 weeks, weighing approximately 19-23 g were used. Animals were housed and maintained according to IACUC protocols.
Air Pouch: Each mouse was anesthetized and injected with 6 mL of sterile air subcutaneously (SC) at the nape of the neck and the injection site was sealed with flexible colloidon to create an air pouch. Three days later, the mice were injected with 3 mL of sterile air SC at the same site and the injection site was sealed with flexible colloidon.
Preparation of MSU Crystals: 10 g uric acid (Sigma, Cat. U2625, lot BCBM5312V) was heated to 60° C. in 2 L purified water, containing 5.8 mL 10 N NaOH. The pH of the heated mixture was adjusted to 8.9, yielding a clear solution which was stored overnight at 4-8° C. to allow MSU crystals to form and precipitate. The MSU crystals were washed three times with 1 L purified water and stored at 37° C. to dry.
Formulation of Degrader: 0.5% CMC/0.25% Tween-80 was prepared by dissolving 0.5 g carboxymethylcellulose (Sigma, Cat. C4888, lot 101K0185) in 100 mL de-ionized water followed by the addition of 0.25 mL Tween-80 (Sigma, Cat. P1754, lot 073K0064). […]
Termination, Cell Collection and Data: Four hours after MSU/saline injection, the mice were anesthetized and humanely exsanguinated. […] The air pouch was gently massaged, the contents immediately removed, and the exudate volume recorded. […]

[4] = Oral exposure / bioavailability of I-75; format: in vivo, rat, dog, and monkey; details: FIG. 11
[5] = system: U2932; test: U2932 viability, CTG; format: cell-based; details: Homo sapiens, U2932
[6] = system: cytokines induced by TLR stimuli; test: Human whole blood cytokine release assays; format: cell-based; details: compared with IRAK4 inhibition with PF-06550833, FIG. 16
Experimental: Fresh human whole blood was collected in Na Heparin tubes and received from […] same day as collection. 200 uL of whole blood was aliquoted per well into a 96 well plate. Whole blood was pre-incubated with compounds overnight at 37° C., 5% CO2. Following compound incubation, samples were stimulated with […] (invivogen #tlrl-r848), LPS 10 ng/mL (Sigma #L2637) or IL-1β 25 ng/mL (R&D systems 201-LB) and incubated for an additional 5 hours. At the end of the assay, blood was spun down for 15 min at 4° C. and plasma was collected and immediately stored at −80° C. Cytokine and chemokine levels were measured by custom ordered U-plex MSD panels (panel 1: IFNy, IL-10, IL-1β, IL-6, IL-8, TNFα) and (panel 2: IP-10, MIP1-α, MIP-1β, IL-12/IL-23p40, GROα).

[7] = system: SU-DHL2; test: SU-DHL2 viability, CTG; format: cell-based; details: Homo sapiens, SU-DHL-2
[8] = system: OCI-LY3; test: OCI-LY3 viability, CTG; format: cell-based; details: Homo sapiens, MYD88 MUT
[9] = molecular target: IRAK4 (Homo sapiens (Human), UniProt Q9NWZ3); test: IRAK4 WB degradation (DC50); format: cell-based
IRAK4 (Homo sapiens (Human), UniProt Q9NWZ3), sequence (Q9NWZ3 whole entry): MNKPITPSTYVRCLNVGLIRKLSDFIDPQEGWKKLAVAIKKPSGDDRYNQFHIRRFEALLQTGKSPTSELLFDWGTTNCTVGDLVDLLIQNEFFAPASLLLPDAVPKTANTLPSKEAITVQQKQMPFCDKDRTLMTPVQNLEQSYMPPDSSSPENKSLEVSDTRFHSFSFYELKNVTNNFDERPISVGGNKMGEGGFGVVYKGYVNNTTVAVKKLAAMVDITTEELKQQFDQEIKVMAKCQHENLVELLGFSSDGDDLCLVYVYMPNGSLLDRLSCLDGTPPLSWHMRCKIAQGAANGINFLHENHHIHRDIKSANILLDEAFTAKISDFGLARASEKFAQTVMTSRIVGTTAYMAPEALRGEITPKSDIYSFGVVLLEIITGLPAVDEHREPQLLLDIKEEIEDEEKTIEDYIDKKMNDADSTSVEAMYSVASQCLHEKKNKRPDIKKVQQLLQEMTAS

IRAK4 (Mus musculus (Mouse), UniProt Q8R4K2), sequence (Q8R4K2 whole entry): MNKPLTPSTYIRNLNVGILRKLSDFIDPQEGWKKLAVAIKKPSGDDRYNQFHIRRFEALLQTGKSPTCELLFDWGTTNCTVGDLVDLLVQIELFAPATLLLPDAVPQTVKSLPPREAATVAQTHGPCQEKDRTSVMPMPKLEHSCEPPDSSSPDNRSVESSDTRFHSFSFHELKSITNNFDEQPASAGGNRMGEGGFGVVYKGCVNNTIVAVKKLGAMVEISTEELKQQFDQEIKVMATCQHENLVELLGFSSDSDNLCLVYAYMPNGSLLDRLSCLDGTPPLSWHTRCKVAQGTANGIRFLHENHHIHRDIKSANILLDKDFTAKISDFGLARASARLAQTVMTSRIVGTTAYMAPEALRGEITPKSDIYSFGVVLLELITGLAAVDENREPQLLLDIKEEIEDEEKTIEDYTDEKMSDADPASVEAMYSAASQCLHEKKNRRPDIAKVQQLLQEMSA

| SMILES | apoptosis, combined with a BTK inhibitor ([1]; OCI-LY10 bearing MYD88 L265P and CD79 mutations, within 72 h, FIG. 12) | synergy with BTK inhibition vs cell viability ([1]; four day Cell Titer Glo read out) | IRAK4 in BALB/c mouse spleen [2] | IL-1β in plasma [3] | oral bioavailability ([4]; rat, dog, and monkey) | oral exposure in plasma ([4]; up to 300 mg/kg) | IC50 ([5]; MYD88 WT Lines, read-out: U2932 Viability, CTG IC50) [nM] | IC50 ([5]; MYD88 WT, read-out: U2932 CTG IC50) [nM] | range of cytokines inhibited, induced by different TLR stimuli [6] | IC50 ([7]; MYD88 MUT, read-out: SU-DHL2 CTG IC50) [nM] | IC50 ([7]; MYD88 Mutant Lines, read-out: SU-DHL2 Viability, CTG IC50) [nM] | IC50 [8] [nM] | DC50 [9] [nM] |
| --- | --- | --- | --- | --- | --- | --- | --- | --- | --- | --- | --- | --- | --- |
| CN(CCCOCCCc1cccc2c1n(C)c(=O)n2C1CCC(=O)NC1=O)C[C@H]1CC[C@H](n2cc(NC(=O)c3coc(-c4ccnc(NCC5CC5)c4)n3)c(C(F)F)n2)CC1 (mixture of isomers) [I-30, 2-[2-(Cyclopropylmethylamino)-4-pyridyl]-N-[3-(difluoromethyl)-1-[4-[[3-[3-[1-(2,6-dioxo-3-piperidyl)-3-methyl-2-oxo-benzimidazol-4-yl]propoxy]propyl-methyl-amino]methyl]cyclohexyl]pyrazol-4-yl] oxazole-4-carboxamide] | greater than additive increase in apoptosis | synergistic | in vivo degradation of IRAK4 | dose-dependent decrease in IL-1β |  |  |  |  |  |  |  |  |  |
| CN(C[C@H]1CC[C@H](n2cc(NC(=O)c3coc(-c4ccnc(NCC5CC5)c4)n3)c(C(F)F)n2)CC1)C1CCN(Cc2cccc3c2n(C)c(=O)n3C2CCC(=O)NC2=O)CC1 (stereo partly shown) [I-75, 2-(2-((cyclopropylmethyl)amino)pyridin-4-yl)-N-(3-(difluoromethyl)-1-((1r,4r)-4-(((1-((1-(2,6-dioxopiperidin-3-yl)-3-methyl-2-oxo-2,3-dihydro-1H-benzo[d]imidazol-4-yl)methyl)piperidin-4-yl)(methyl)amino)methyl)cyclohexyl)-1H-pyrazol-4-yl)oxazole-4-carboxamide] |  |  |  |  | oral bioavailable | dose proportional oral exposure in plasma | 374 | 374 | inhibits a broader range of cytokines | 290 | 290 | 180 | 23 |
